Reference: PMC9600589, “The Heptaprenyl Diphosphate Synthase (Coq1) Is the Target of a Lipophilic Bisphosphonate That Protects Mice against Toxoplasma gondii Infection” (mBio, 2022)
Like-named read-outs stand apart in the source and are kept apart here.

Key:
[1] = system: T. gondii parental strain (TatiΔku80); experiment: Growth inhibition of the parental strain; format: cell-based; settings: Toxoplasma gondii, read-out: EC50 (TatiΔku80)
Description: (§1) Previous work has shown that bisphosphonates can target several enzymes of the isoprenoid biosynthesis pathway, including the farnesyl diphosphate synthase (FPPS), which synthesizes FPP, the preferred substrate of TgCoq1 ([14]). […] We further determined specificity against TgCoq1, by comparing the growth inhibition of the compound against a parental strain (TatiΔku80) versus a cell line overexpressing TgCoq1 (TgCoq1-OE).
(§2) Experiments on T. gondii tachyzoites were carried out using parasites expressing red fluorescent protein (RFP) ([66]) with the modification described by Recher et al. ([67]). Tachyzoites were maintained in human fibroblasts (hTERT cells). For drug testing and growth assays, parasites were purified by passing them through a 25-gauge needle, followed by filtration through a 3-μm filter. Human fibroblasts were cultured in 96-well black-sided plates for 24 h before the addition of 4,000 fluorescent tachyzoites/well. […] The EC50s were calculated using Prism software. The UQ6 experiments were performed using the same protocol as described above. The parasites were supplemented with 10 μM UQ6.

[2] = system: T. gondii TgCoq1-OE strain; experiment: Growth inhibition of the TgCoq1 overexpressing strain; format: cell-based; settings: Toxoplasma gondii, read-out: EC50 TgCoq1-OE strain
Description: as §1, §2

T. gondii RH = experiment: In vitro growth inhibition of RFP-expressing tachyzoites in hTERT fibroblasts; format: cell-based, Toxoplasma gondii; settings: for rescue of growth inhibition by UQ6: 10 μM UQ6 added to the culture; for IC50 / EC50: Toxoplasma gondii, Fibroblast; for IC50: T. gondii growth in vitro; for EC50: T. gondii RH
Description: as §2

recombinant TgCoq1 [3] = target: T1, recombinant TgCoq1 (Toxoplasma gondii, UniProt S8EY63); experiment: biochemical
T1 sequence (S8EY63 152-676): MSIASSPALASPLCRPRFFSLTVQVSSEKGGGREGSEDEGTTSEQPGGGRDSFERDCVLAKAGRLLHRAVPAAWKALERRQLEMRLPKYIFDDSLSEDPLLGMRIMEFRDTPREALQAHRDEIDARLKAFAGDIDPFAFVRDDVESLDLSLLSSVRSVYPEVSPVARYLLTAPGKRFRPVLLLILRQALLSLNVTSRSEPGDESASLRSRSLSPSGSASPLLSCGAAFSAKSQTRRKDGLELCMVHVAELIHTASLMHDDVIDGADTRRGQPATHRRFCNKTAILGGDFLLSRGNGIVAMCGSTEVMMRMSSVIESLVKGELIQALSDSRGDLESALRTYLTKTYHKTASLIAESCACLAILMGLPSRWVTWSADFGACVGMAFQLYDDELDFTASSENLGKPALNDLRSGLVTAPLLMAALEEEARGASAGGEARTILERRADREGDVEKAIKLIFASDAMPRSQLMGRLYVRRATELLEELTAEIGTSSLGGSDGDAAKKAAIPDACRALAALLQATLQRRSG

recombinant TgFPPS = recombinant TgFPPS (Toxoplasma gondii, UniProt Q197X6); experiment: biochemical
hTERT cells = experiment: Cytotoxicity to hTERT cells (alamarBlue); settings: hTERT cells
Description: The cytotoxicity was tested using an alamarBlue assay as described by Recher et al. ([67]).

recombinant TgCoq1 [4] = target: T1, recombinant TgCoq1; experiment: Kinetic parameters of recombinant TgCoq1 with allylic substrates ([4-14C]IPP incorporation); format: biochemical; settings: allylic substrate varied, counter substrate IPP (100 μM)
Description: (§3) To investigate the biochemical function of TgCoq1, we cloned the TGGT1_269430 gene in an E. coli expression plasmid, which also includes a C-terminal polyhistidine tag to facilitate the purification of the recombinant protein by affinity chromatography. The activity of the purified protein was determined using allylic substrates and cosubstrates, by measuring the amount of [4-^14C]IPP incorporated into butanol-extractable polyprenyl diphosphates (FPP and GGPP) (Fig. 2A). […] A parallel experiment with the already characterized recombinant Trypanosoma cruzi solanesyl diphosphate synthase ([26]), TcSPPS, known to synthesize a 45-carbon product, is shown in the same TLC (Fig. 2B). With the use of a standard enzymatic method ([26]), the kinetic parameters of the reaction were obtained using various concentrations of the allylic substrates (GPP, FPP, GGPP, and IPP) and keeping the concentration of counter substrates at a saturating level (Table 1). Under these experimental conditions, the enzyme was more efficient with FPP than with GGPP (Fig. 2C) or GPP as the substrate (Table 1).
(§4) Kinetic parameters for the recombinant TgCoq1 were calculated from the activity obtained by varying the concentration of the allylic substrates (GPP, FPP, GGPP, and IPP) and keeping the concentration of counter substrates at a saturating level. The nonlinear regression analysis in Sigma plot 10.0 was used to calculate the Kinetic parameters.
(§5) For the enzymatic activity, a standard protocol for medium/long-chain prenyl diphosphate synthase was followed as described previously ([26]). The enzyme activity was measured by assessing the amount of [4-^14C]IPP incorporated into butanol-extractable polyprenyl diphosphates. The standard assay mixture contained, in a final volume of 100 μl, Tris-HCl (100 mM, pH 7.4), 100 μM of any of the allylic substrates FPP/GGPP/GPP, 1 mM MgCl2, 1 mM DTT, 1% vol/vol Triton X-100, 100 μM [4-^14C]-IPP (1 μCi/μMol), and 500 ng of purified protein. Reaction mixtures were incubated at 37°C for 30 min unless otherwise indicated. The radioactive prenyl products were extracted with 1-butanol and washed with NaCl-saturated water, and activities were calculated from the DPM values.

[5] = system: T. gondii iΔCoq1 (+ATc) mutant; experiment: Rescue of the growth defect of the iΔCoq1 (+ATc) mutant by ubiquinones; format: cell-based, Toxoplasma gondii
Description: To further validate the role of TgCoq1 in the synthesis of ubiquinone, we tested if supplementing cultures of the iΔCoq1 (+ATc) mutant with various ubiquinones would rescue the growth defect (Fig. 7). Because UQ7 is not commercially available, we tested UQ6, UQ8, and UQ10 and observed a remarkable rescue of the growth of the iΔCoq1 (+ATc) mutant by UQ6 (Fig. 7A).
Experiments on T. gondii tachyzoites were carried out using parasites expressing red fluorescent protein (RFP) ([66]) with the modification described by Recher et al. ([67]). Tachyzoites were maintained in human fibroblasts (hTERT cells). For drug testing and growth assays, parasites were purified by passing them through a 25-gauge needle, followed by filtration through a 3-μm filter. Human fibroblasts were cultured in 96-well black-sided plates for 24 h before the addition of 4,000 fluorescent tachyzoites/well. Fluorescence values were measured for up to 9 days, and both excitation (544 nm) and emission (590 nm) were read from the bottom of the plates in a Molecular Devices plate reader ([46]). The EC50s were calculated using Prism software. The UQ6 experiments were performed using the same protocol as described above. […]

[6] = substrate: CC(C)=CCC/C(C)=C/CC/C(C)=C/CO[P@@](=O)(O)OP(=O)(O)O; experiment: Kinetic parameters of recombinant TgCoq1 with allylic substrates ([4-14C]IPP incorporation); format: biochemical, Toxoplasma gondii; settings: other: allylic substrate varied, counter substrate IPP (100 μM); pH 7.4; 37.0 °C
Description: as §3, §4, §5

[7] = substrate: C=C(C)CCO[P@@](=O)(O)OP(=O)(O)O; experiment: as above; format: biochemical, Toxoplasma gondii; settings: pH 7.4, 37.0 °C
Description: as §3, §4, §5

[8] = at 4X EC50 (concentration in μM in brackets)
[9] = at 10X EC50 (concentration in μM in brackets)
[10] = other: counter substrate FPP (100 μM)
[11] = other: counter substrate GGPP (50 μM)
[12] = other: counter substrate GPP (150 μM)

Sequence of recombinant TgFPPS (Q197X6 entry or part of it): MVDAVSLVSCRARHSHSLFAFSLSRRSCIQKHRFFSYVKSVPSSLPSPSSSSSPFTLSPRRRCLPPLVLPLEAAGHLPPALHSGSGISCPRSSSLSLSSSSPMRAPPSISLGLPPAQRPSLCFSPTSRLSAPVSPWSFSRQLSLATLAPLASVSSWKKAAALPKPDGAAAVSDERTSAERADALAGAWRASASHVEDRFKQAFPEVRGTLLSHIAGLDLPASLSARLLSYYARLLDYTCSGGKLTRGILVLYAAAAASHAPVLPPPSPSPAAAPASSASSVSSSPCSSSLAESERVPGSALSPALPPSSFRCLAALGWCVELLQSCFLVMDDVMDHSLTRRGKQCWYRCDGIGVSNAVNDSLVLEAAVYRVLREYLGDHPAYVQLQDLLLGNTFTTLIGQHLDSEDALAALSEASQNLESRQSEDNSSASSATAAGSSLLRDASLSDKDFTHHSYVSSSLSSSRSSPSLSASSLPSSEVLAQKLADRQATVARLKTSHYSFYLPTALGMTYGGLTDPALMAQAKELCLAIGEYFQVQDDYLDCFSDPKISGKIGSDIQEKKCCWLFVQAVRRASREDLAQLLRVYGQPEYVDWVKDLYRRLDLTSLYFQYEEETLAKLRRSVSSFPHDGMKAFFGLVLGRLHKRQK

Molecule: O=C1C(O)=C([C@H]2CC[C@H](c3ccc(Cl)cc3)CC2)C(=O)c2ccccc21 [Atovaquone]
- EC50 [1]: 30 ± 10 nM
- EC50 [2]: 40 ± 10 nM
- rescue of growth inhibition by UQ6 (T. gondii RH): modest rescue

Molecule: CCCCCCCCC(O)(P(=O)(O)O)P(=O)(O)O [BPH-252]
- IC50 (recombinant TgCoq1 [3]): 2130 ± 520 nM
- IC50 (recombinant TgFPPS): 130 ± 50 nM
- IC50 (T. gondii RH): 850 ± 140 nM

Molecule: CCCCCCCCn1cc[n+](CC(P(=O)([O-])O)P(=O)(O)O)c1 (stereo not drawn) [BPH-1217]
- % Inhibition (cytotoxicity) (hTERT cells; [8]): 8.01 ± 1.82%
- % Inhibition (cytotoxicity) (hTERT cells; [9]): 6.19 ± 9.55%

Molecule: CCCCCCCCCCCCCCn1cc[n+](CC(P(=O)([O-])O)P(=O)(O)O)c1 (stereo not drawn) [BPH-1219]
- % Inhibition (cytotoxicity) (hTERT cells; [8]): 3.20 ± 2.89%
- % Inhibition (cytotoxicity) (hTERT cells; [9]): 8.01 ± 1.82%

Molecule: CCCCCCCCCCCn1cc[n+](CC(O)(P(=O)([O-])O)P(=O)(O)O)c1 (stereo not drawn) [BPH-1236]
- % Inhibition (cytotoxicity) (hTERT cells; [8]): 4.13 ± 1.20%
- % Inhibition (cytotoxicity) (hTERT cells; [9]): 9.10 ± 2.38%

Molecule: CCCCCCCCCn1cc[n+](CC(O)(P(=O)([O-])O)P(=O)(O)O)c1 (stereo not drawn) [BPH-1238]
- % Inhibition (cytotoxicity) (hTERT cells; [8]): 9.77 ± 1.18%
- % Inhibition (cytotoxicity) (hTERT cells; [9]): 13.37 ± 6.08%

Molecule: CCCCCCCCCCCCCCCn1cc[n+](CC(O)(P(=O)([O-])O)P(=O)(O)O)c1 (stereo not drawn) [BPH-1325]
- IC50 (recombinant TgCoq1 [3]): 1690 ± 460 nM
- IC50 (recombinant TgFPPS): 700 ± 60 nM
- IC50 (T. gondii RH): 1650 ± 890 nM

Molecule: CC(C)=CCC/C(C)=C/CC/C(C)=C/CC/C(C)=C/COP(=O)(O)OP(=O)(O)O [GGPP, geranylgeranyl diphosphate]
- Kcat (recombinant TgCoq1 [4]): 0.00275 ± 8.3e-05 s⁻¹
- Km (recombinant TgCoq1 [4]): 14.1 ± 1.43 µM
- Vmax (recombinant TgCoq1 [4]): 82.98 ± 2.51 nmol/min/mg

Molecule: CC(C)=CCC/C(C)=C/COP(=O)(O)OP(=O)(O)O [GPP, geranyl diphosphate]
- Kcat (recombinant TgCoq1 [4]): 0.0002 ± 1.7e-05 s⁻¹
- Km (recombinant TgCoq1 [4]): 0.88 ± 0.6 µM
- Vmax (recombinant TgCoq1 [4]): 6.16 ± 0.45 nmol/min/mg

Molecule: Cc1[nH]c2c(c(=O)c1-c1ccc(Oc3ccc(OC(F)(F)F)cc3)cc1)CCCC2 [JAG-21]
- % Inhibition (cytotoxicity) (hTERT cells; [8]): 6.40 ± 5.50%
- % Inhibition (cytotoxicity) (hTERT cells; [9]): 5.75 ± 4.98%
- rescue of growth inhibition by UQ6 (T. gondii RH): not rescued
- EC50 (T. gondii RH; with ubiquinone Q6 (10 μM) in the culture, read-out: EC50 + UQ6): 70 ± 1 nM
- EC50 (T. gondii RH; without UQ6, read-out: EC50): 49 ± 20 nM

Molecule: CC(C)=CCC/C(C)=C/CNCCNC1C2CC3CC(C2)CC1C3 (stereo not drawn) [SQ109]
- EC50 [1]: 1730 ± 380 nM
- EC50 [2]: 1800 ± 470 nM

Molecule: COC1=C(OC)C(=O)C(C/C=C(\C)CC/C=C(\C)CC/C=C(\C)CC/C=C(\C)CC/C=C(\C)CCC=C(C)C)=C(C)C1=O [UQ6, Ubiquinone Q6]
- rescue of growth of the iΔCoq1 mutant with ATc ([5]; 5 μM ubiquinone): rescue
- rescue of growth of the iΔCoq1 mutant with ATc ([5]; 10 μM ubiquinone): rescued

Molecule: COC1=C(OC)C(=O)C(C/C=C(\C)CC/C=C(\C)CC/C=C(\C)CC/C=C(\C)CC/C=C(\C)CC/C=C(\C)CC/C=C(\C)CCC=C(C)C)=C(C)C1=O [UQ8, ubiquinone 8]
- rescue of growth of the iΔCoq1 mutant with ATc ([5]; 5 μM ubiquinone): no rescue

Molecule: COC1=C(OC)C(=O)C(C/C=C(\C)CC/C=C(\C)CC/C=C(\C)CC/C=C(\C)CC/C=C(\C)CC/C=C(\C)CC/C=C(\C)CC/C=C(\C)CC/C=C(\C)CCC=C(C)C)=C(C)C1=O [UQ10, ubiquinone 10]
- rescue of growth of the iΔCoq1 mutant with ATc ([5]; 5 μM ubiquinone): no rescue

B1: recombinant TgCoq1 (Toxoplasma gondii ME49) (protein)
chain: T1 sequence (S8EY63 152-676)
- Km [6]: 12.37 ± 1.83 µM
- kcat/Km [6]: 609 M⁻¹ s⁻¹
- Km [7, 10]: 139.11 ± 17.68 µM
- kcat/Km [7, 10]: 134 M⁻¹ s⁻¹
- Km [7, 11]: 141.89 ± 35.75 µM
- kcat/Km [7, 11]: 87.5 M⁻¹ s⁻¹
- Km [7, 12]: 145.48 ± 1.18 µM
- kcat/Km [7, 12]: 6.5 M⁻¹ s⁻¹
